Laboratory results as given in ChEMBL document CHEMBL5338797, “Rational Design of Covalent Kinase Inhibitors by an Integrated Computational Workflow (Kin-Cov)” (J Med Chem, 2023).
The source made the active and inactive calls. The calls are words filed in the database; no cut-off is given here.

Experiments:
[1] = target: T1, Mitogen-activated protein kinase kinase kinase 20 (Homo sapiens, UniProt Q9NYL2); experiment: Inhibition of recombinant ZAK (unknown origin) using ATP as substrate preincubated for 60 mins followed by substrate addition and measured after 40 mins by fluorescence based envision multilabel reader method
Target sequence in this assay (Q9NYL2 whole entry): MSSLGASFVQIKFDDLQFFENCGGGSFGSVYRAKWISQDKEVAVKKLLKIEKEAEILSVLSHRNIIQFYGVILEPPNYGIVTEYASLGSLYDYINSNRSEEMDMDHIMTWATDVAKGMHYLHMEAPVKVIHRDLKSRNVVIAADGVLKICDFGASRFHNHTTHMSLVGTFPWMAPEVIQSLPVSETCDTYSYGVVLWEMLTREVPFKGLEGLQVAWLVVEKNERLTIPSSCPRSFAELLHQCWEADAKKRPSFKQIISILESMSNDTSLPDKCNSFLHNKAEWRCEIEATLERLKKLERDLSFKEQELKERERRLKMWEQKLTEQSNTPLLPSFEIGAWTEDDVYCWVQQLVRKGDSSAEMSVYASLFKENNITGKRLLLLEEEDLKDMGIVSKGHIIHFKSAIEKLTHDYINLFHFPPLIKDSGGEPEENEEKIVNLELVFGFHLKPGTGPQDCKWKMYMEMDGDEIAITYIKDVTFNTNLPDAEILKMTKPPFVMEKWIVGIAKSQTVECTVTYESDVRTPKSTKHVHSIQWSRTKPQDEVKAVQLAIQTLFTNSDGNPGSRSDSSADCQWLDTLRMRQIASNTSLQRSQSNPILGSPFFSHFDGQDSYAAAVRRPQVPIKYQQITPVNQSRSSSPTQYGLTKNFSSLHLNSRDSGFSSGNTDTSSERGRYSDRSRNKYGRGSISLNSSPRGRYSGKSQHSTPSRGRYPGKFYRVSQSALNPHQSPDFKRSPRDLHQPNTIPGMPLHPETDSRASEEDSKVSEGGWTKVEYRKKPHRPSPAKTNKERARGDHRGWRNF

[2] = target: Serine/threonine-protein kinase B-raf (Homo sapiens, UniProt P15056, V600E); experiment: Inhibition of B-RAF V600E mutant (unknown origin) incubated for 1 hr in presence of ATP by envision multilabel reader analysis
Sequence of Serine/threonine-protein kinase B-raf (P15056 2-766 V600E limits assumed): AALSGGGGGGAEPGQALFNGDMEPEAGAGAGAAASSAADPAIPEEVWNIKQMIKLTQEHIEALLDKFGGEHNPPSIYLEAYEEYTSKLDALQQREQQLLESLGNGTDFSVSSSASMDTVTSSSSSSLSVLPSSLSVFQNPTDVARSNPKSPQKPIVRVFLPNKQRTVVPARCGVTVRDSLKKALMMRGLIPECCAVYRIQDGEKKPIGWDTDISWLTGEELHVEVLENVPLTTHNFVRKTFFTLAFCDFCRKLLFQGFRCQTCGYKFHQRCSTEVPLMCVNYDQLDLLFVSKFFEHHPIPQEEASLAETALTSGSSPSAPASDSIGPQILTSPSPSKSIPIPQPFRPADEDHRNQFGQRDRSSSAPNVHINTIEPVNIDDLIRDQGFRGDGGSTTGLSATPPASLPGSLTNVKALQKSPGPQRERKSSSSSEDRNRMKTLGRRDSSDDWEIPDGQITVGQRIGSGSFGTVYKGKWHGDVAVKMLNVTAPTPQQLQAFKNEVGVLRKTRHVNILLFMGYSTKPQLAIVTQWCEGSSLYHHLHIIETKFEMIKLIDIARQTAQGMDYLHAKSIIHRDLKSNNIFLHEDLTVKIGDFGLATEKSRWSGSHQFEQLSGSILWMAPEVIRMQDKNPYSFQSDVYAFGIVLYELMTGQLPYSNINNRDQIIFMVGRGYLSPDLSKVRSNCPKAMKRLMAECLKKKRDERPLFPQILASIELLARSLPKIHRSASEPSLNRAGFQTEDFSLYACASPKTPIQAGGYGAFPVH

[3] = target: T1, Mitogen-activated protein kinase kinase kinase 20; experiment: Inhibition of partial length human ZAK by KINOMEscan assay
Target sequence in this assay (Q9NYL2 whole entry): as the sequence (Q9NYL2 whole entry) above

LIM domain kinase 1 [4] = target: T2, LIM domain kinase 1 (Homo sapiens, UniProt P53667); experiment: Inhibition of full length human LIMK1 by KINOMEscan assay
Target sequence in this assay (P53667 whole entry, the tested form may be a part): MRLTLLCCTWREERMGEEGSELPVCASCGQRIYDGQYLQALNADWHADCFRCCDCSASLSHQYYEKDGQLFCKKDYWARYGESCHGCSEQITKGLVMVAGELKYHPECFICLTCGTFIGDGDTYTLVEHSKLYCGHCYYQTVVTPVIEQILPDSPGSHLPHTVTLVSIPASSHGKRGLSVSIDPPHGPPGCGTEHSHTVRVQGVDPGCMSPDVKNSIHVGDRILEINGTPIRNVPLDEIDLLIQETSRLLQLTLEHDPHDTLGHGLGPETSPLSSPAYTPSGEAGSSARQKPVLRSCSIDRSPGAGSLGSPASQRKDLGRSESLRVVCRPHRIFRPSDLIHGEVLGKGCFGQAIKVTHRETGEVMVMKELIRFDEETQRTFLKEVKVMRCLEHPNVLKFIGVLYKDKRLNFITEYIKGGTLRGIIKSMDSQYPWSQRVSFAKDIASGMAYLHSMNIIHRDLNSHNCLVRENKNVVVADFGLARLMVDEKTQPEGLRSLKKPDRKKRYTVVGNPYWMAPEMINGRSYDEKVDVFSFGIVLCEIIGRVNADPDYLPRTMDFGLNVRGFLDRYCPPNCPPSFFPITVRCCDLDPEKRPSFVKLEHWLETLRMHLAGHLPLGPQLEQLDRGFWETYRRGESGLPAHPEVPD

LIM domain kinase 2 [5] = target: T3, LIM domain kinase 2 (Homo sapiens, UniProt P53671); experiment: Inhibition of full length human LIMK2 by KINOMEscan assay
Target sequence in this assay (P53671 whole entry, the tested form may be a part): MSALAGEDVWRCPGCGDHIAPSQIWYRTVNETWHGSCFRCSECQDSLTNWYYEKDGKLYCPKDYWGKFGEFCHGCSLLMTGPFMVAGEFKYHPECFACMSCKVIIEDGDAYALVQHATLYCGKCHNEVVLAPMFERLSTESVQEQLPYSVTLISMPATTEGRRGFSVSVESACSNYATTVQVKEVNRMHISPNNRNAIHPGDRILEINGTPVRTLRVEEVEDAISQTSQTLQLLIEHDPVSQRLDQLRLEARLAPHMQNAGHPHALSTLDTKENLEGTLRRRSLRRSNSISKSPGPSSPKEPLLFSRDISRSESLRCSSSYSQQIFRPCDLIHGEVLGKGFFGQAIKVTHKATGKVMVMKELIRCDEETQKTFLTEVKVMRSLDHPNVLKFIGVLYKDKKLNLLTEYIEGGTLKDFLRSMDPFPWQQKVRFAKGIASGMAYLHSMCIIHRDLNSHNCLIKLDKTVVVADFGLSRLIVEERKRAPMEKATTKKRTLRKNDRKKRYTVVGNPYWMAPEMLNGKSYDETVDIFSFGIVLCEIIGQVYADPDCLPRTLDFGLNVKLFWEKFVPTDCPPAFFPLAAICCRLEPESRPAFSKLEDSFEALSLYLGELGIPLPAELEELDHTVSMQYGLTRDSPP

[6] = target: T4, Tyrosine-protein kinase Lck (Homo sapiens, UniProt P06239); experiment: Inhibition of partial length human LCK by KINOMEscan assay
Target sequence in this assay (P06239 whole entry): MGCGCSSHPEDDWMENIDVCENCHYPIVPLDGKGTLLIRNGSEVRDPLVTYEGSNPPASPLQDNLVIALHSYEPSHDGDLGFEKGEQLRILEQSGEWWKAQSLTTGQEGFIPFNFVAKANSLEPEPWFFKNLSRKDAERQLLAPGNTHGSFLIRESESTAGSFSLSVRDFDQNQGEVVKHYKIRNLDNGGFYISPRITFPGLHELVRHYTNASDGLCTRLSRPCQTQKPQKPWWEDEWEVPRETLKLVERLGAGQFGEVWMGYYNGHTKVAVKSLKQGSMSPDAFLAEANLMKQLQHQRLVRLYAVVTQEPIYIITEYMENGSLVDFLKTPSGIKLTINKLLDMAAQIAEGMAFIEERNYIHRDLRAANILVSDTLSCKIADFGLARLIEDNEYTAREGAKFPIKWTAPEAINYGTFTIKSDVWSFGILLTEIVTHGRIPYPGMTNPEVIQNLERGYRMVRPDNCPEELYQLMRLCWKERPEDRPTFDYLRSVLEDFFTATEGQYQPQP

[7] = target: MAP kinase p38 (Homo sapiens) (UniProt O15264+Q15759+Q16539+P53778); experiment: Inhibition of p38 phosphorylation in human U2OS cells measured for 1 hr by Western blot analysis; assay type: cell-based; details: dose <= 10.0 µM
[8] = target: T1, Mitogen-activated protein kinase kinase kinase 20; experiment: Inhibition of ZAKapha (unknown origin) at 10 uM measured after 1 hr by Western blot analysis
Target sequence in this assay (Q9NYL2 2-800 limits assumed): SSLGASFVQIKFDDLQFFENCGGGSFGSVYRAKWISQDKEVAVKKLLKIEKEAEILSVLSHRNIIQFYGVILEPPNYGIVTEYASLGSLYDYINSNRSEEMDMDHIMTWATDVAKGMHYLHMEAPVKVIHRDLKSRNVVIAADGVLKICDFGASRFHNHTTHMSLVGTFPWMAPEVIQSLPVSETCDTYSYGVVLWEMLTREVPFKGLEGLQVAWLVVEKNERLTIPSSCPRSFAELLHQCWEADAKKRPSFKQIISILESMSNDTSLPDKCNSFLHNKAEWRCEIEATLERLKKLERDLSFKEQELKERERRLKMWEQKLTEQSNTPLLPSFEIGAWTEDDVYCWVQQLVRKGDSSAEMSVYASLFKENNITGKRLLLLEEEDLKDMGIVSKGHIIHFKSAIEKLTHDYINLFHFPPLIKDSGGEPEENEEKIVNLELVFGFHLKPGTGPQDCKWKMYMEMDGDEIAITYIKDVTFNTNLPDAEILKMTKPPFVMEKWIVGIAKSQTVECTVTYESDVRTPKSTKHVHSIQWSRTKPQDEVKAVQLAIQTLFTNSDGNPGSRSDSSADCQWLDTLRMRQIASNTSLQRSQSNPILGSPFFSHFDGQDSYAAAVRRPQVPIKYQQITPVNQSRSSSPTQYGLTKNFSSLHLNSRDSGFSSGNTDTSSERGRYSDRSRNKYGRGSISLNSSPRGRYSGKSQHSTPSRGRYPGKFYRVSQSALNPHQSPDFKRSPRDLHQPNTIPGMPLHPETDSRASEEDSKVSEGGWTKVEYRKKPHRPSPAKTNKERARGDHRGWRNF

[9] = target: T1, Mitogen-activated protein kinase kinase kinase 20; experiment: Inhibition of ZAKbeta (unknown origin) at 10 uM measured after 1 hr by Western blot analysis
Target sequence in this assay (Q9NYL2 2-800 limits assumed): as above

U2OS [10] = experiment: Induction of apoptosis in ZAK knockout human U2OS cells assessed as reduction in cell death at 10 uM measured after 24 hrs in presence of doxorubicin; assay type: functional, cell-based
U2OS [11] = experiment: Induction of apoptosis in human U2OS cells assessed as reduction in cell death at 10 uM measured after 24 hrs in presence of doxorubicin; assay type: functional, cell-based
U2OS [12] = experiment: Induction of apoptosis in ZAK knockout human U2OS cells assessed as increase in cleaved-caspase 3 level at 10 uM measured for 4 hrs; assay type: functional, cell-based
LIM domain kinase 1 [13] = target: T2, LIM domain kinase 1; experiment: Inhibition of full length human LIMK1 at 1000 nM by KINOMEscan assay relative to control; values are per cent of control
Target sequence in this assay (P53667 whole entry, looked up, the tested form may be a part): as the sequence (P53667 whole entry, the tested form may be a part) above

LIM domain kinase 2 [14] = target: T3, LIM domain kinase 2; experiment: Inhibition of full length human LIMK2 at 1000 nM by KINOMEscan assay relative to control; values are per cent of control
Target sequence in this assay (P53671 whole entry, looked up, the tested form may be a part): as the sequence (P53671 whole entry, the tested form may be a part) above

[15] = target: T1, Mitogen-activated protein kinase kinase kinase 20; experiment: Inhibition of partial length human ZAK at 1000 nM by KINOMEscan assay relative to control; values are per cent of control
Target sequence in this assay (Q9NYL2 2-800 limits assumed): as the sequence (Q9NYL2 2-800 limits assumed) above

[16] = target: T4, Tyrosine-protein kinase Lck; experiment: Inhibition of partial length human LCK at 1000 nM by KINOMEscan assay relative to control; values are per cent of control
Target sequence in this assay (P06239 2-509 limits assumed): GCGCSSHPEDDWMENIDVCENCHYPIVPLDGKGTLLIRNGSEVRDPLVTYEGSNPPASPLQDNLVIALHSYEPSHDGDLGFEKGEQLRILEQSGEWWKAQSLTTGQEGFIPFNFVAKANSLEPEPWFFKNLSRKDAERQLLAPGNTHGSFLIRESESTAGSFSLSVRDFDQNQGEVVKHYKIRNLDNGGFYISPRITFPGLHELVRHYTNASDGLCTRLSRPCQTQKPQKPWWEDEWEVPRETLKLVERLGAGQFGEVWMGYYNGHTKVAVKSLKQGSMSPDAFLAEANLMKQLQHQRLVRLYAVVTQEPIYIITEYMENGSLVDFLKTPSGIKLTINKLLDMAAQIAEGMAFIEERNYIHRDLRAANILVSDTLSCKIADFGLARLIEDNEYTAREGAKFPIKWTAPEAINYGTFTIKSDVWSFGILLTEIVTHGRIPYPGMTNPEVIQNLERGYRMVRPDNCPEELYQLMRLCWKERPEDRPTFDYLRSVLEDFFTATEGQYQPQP

U2OS [17] = experiment: Induction of apoptosis in human U2OS cells assessed as increase in cleaved-caspase 3 level at 100 uM measured for 4 hrs; assay type: functional, cell-based

C=CC(=O)N1CC[C@@H](Oc2n[nH]c3ncc(-c4cn(-c5c(F)ccc(NS(=O)(=O)c6cccc(-c7ccccc7)c6)c5F)nn4)cc23)C1
IC50 [1]: 12.3 nM

C=CC(=O)N1CCC(Oc2n[nH]c3ncc(-c4cn(-c5c(F)ccc(NS(=O)(=O)c6cccc(-c7ccccc7)c6)c5F)nn4)cc23)C1 (configuration not stated)
IC50 [1]: 11.5 nM
IC50 [2]: > 1000 nM
IC50 [3]: 11.5 nM
IC50 (LIM domain kinase 1 [4]): 12.3 nM
IC50 (LIM domain kinase 2 [5]): 21.3 nM
IC50 [6]: 204 nM
inhibition [7]: Dose-Dependent Effect
inhibition [8]: Active
inhibition [9]: Active
Activity (U2OS [10]): inactive
Activity (U2OS [11]): Active
Activity (U2OS [12]): inactive
residual activity (LIM domain kinase 1 [13]): 9%
residual activity (LIM domain kinase 2 [14]): 6%
residual activity [15]: -4%
residual activity [16]: 8%

C=CC(=O)N1CC[C@H](Oc2n[nH]c3ncc(-c4cn(-c5c(F)ccc(NS(=O)(=O)c6cccc(-c7ccccc7)c6)c5F)nn4)cc23)C1
IC50 [1]: 9.9 nM

C=CC(=O)N1CCC(Oc2n[nH]c3ncc(-c4cn(-c5c(F)ccc(NS(=O)(=O)c6ccccc6)c5F)nn4)cc23)C1 (configuration not stated)
IC50 [1]: 10.1 nM
IC50 [2]: 247 nM

C=CC(=O)NCCCOc1n[nH]c2ncc(-c3cn(-c4c(F)ccc(NS(=O)(=O)c5cccc(-c6ccccc6)c5)c4F)nn3)cc12
IC50 [1]: 9.1 nM

COc1ccc(C[C@H]2NC[C@H](O)[C@H]2OC(C)=O)cc1
inhibition [7]: Dose-Dependent Effect

COc1cccc2c1C(=O)c1c(O)c3c(c(O)c1C2=O)C[C@@](O)(C(=O)CO)C[C@@H]3O[C@H]1C[C@H](N)[C@H](O)[C@H](C)O1
Activity (U2OS [17]): Active

C=CC(=O)N1CCCC(NC(=O)CCCCCCOc2n[nH]c3ncc(-c4cn(-c5c(F)ccc(NS(=O)(=O)c6cccc(-c7ccccc7)c6)c5F)nn4)cc23)C1 (configuration not stated)
IC50 [1]: 34.7 nM

COc1n[nH]c2ncc(-c3cn(-c4c(F)ccc(NS(=O)(=O)c5cccc(-c6ccccc6)c5)c4F)nn3)cc12
IC50 [1]: 8.8 nM
IC50 [2]: > 1000 nM

C=CC(=O)NCCCCCCN1CCC(COc2n[nH]c3ncc(-c4cn(-c5c(F)ccc(NS(=O)(=O)c6cccc(-c7ccccc7)c6)c5F)nn4)cc23)CC1
IC50 [1]: 10.1 nM
